Biological target: T1, PI3Kα (p110α/p85α) (Homo sapiens, UniProt P42336)
T1 construct: purchased BPS Bioscience (San Diego, Calif.) or Millipore (Billerica, Mass.)
Experiment: HTRF assay, potency against active PI3Kα
Assay type: biochemical
Settings: HTRF; [ATP]=50 μM, [di-C8-PIP2]=10 μM; 30 min pre-incubation; read-out: PI3Kα Inhibition
Protocol: Homogeneous Time Resolved Fluorescence (HTRF) Assay Protocol for Potency Assessment Against the Active Forms of PI3Kα, PI3Kβ, and PI3Kγ
The mechanics of the assay platform are best described by the vendor (Millipore, Billerica, Mass.) on their website at the following URL: www.millipore.com/coa/tech1/74jt4z.
Briefly, Stop solution (Stop A, #33-007 and Stop B, #33-009; 3:1 ratio) and Detection Mix (from DMC, #33-015 with DMA, #33-011 and DMB, #33-013; 18:1:1 ratio) were prepared as recommended by the manufacturer about 2 hrs prior to use. […] Lipid kinase reactions were started with the addition of 5 μL of ATP solution, mixed for 15 sec on a rotary plate shaker and incubated for 30-60 minutes at 25° C. Next, reactions were stopped with a 5 μL addition of Stop solution immediately followed by a 5 μL volume of Detection Mix. […] At the conclusion of each assay, the HTRF ratio from fluorescence emission values for each well was calculated and % Inhibition determined from averaged controls wells (+/−PI3K enzyme). % Inhibition values for each compound were then plotted against inhibitor concentration to estimate IC50 from log [Inhibitor] vs Response, Variable Slope model in GraphPad Prism from GraphPad Software (San Diego, Calif.).

T1 sequence (P42336 whole entry): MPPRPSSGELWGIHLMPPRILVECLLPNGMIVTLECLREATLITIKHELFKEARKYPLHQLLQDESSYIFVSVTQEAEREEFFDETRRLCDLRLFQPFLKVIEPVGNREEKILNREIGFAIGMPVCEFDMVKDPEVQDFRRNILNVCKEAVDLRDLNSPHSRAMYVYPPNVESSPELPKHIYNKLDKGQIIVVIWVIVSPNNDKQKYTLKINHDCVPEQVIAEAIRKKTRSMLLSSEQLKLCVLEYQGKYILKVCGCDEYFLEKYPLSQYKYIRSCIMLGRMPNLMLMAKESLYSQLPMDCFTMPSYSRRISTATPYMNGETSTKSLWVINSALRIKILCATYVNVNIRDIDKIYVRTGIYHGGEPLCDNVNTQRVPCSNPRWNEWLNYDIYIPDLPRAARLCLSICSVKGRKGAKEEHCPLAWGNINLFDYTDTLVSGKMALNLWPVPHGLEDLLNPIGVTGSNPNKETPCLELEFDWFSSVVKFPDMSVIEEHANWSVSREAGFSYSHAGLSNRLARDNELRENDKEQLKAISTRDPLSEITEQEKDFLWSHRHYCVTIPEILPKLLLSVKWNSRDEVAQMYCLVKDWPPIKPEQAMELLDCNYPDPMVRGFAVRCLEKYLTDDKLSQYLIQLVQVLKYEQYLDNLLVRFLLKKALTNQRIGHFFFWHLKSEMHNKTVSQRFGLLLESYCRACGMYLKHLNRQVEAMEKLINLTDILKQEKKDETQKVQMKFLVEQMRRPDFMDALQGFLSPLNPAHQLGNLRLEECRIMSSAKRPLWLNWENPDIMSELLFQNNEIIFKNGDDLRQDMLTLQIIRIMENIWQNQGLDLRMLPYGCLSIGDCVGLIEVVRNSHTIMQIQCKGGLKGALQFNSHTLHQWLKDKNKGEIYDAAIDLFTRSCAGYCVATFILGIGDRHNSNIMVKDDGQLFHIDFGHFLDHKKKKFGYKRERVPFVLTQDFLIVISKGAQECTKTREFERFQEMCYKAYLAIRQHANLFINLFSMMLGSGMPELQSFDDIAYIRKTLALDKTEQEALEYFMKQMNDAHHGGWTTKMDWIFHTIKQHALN
T1 sequence (P27986 whole entry partner): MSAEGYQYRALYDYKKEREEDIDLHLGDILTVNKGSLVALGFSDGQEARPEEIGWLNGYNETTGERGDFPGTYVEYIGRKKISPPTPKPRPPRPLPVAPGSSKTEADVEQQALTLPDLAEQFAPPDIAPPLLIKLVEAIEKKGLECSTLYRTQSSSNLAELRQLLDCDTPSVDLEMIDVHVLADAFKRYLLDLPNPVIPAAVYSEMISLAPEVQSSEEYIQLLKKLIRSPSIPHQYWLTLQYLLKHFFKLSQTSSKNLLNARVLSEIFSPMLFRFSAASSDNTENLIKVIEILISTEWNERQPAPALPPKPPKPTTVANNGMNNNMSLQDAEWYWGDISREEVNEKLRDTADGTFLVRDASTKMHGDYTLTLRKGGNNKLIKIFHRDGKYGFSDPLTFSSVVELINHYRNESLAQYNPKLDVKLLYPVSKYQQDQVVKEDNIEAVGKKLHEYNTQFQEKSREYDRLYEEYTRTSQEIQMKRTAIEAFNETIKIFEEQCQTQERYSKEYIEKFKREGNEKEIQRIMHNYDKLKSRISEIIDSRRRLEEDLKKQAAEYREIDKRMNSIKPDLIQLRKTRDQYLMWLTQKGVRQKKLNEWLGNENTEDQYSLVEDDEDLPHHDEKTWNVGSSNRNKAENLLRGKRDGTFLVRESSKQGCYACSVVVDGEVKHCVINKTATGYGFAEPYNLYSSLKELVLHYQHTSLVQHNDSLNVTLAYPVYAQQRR

IC50 | SMILES
> 1000 nM | C=CC(=O)NCCC(=O)N1CC=C(c2cc3nc(-c4cccc5[nH]ncc45)nc(N4CCOCC4)c3s2)CC1 [II-a-95, N-(3-(4-(2-(1H-indazol-4-yl)-4-morpholinothieno[3,2-d]pyrimidin-6-yl)-5,6-dihydropyridin-1(2H)-yl)-3-oxopropyl)acrylamide]
100 to 1000 nM | C/C(=C\c1ncc[nH]1)C(=O)CCC(=O)N1CCN(Cc2cc3nc(-c4cccc5[nH]ncc45)nc(N4CCOCC4)c3s2)CC1 [II-a-170, (E)-1-(4-((2-(1H-indazol-4-yl)-4-morpholinothieno[3,2-d]pyrimidin-6-yl)methyl)piperazin-1-yl)-6-(1H-imidazol-2-yl)-5-methylhex-5-ene-1,4-dione]
10 to 100 nM | C=CC(=O)N1CCc2ccc(-c3cc4nc(-c5cccc(O)c5)nc(N5CCOCC5)c4s3)cc2C1 [II-a-106, 1-(7-(2-(3-hydroxyphenyl)-4-morpholinothieno[3,2-d]pyrimidin-6-yl)-3,4-dihydroisoquinolin-2(1H)-yl)prop-2-en-1-one]
100 to 1000 nM | C=CC(=O)N[C@@H]1CCCC[C@H]1C(=O)N1CCN(Cc2cc3nc(-c4cccc5[nH]ncc45)nc(N4CCOCC4)c3s2)CC1 [II-a-97]
100 to 1000 nM | CCC(=O)NC1CCN(c2ccc(-c3cc4nc(-c5cccc(O)c5)nc(N5CCOCC5)c4s3)cc2)CC1 [II^R-a-81, N-(1-(4-(2-(3-hydroxyphenyl)-4-morpholinothieno[3,2-d]pyrimidin-6-yl)phenyl)piperidin-4-yl)propionamide]
100 to 1000 nM | C=CC(=O)NCC12CCC(c3cc4nc(-c5cccc6[nH]ncc56)nc(N5CCOCC5)c4s3)(CC1)OC2 [II-a-153, N-((1-(2-(1H-indazol-4-yl)-4-morpholinothieno[3,2-d]pyrimidin-6-yl)-2-oxabicyclo[2.2.2]octan-4-yl)methyl)acrylamide]
100 to 1000 nM | CC(C)(C)/C=C/C(=O)CCC(=O)N1CCN(Cc2cc3nc(-c4cccc5[nH]ncc45)nc(N4CCOCC4)c3s2)CC1 [II-a-131, (E)-1-(4-((2-(1H-indazol-4-yl)-4-morpholinothieno[3,2-d]pyrimidin-6-yl)methyl)piperazin-1-yl)-7,7-dimethyloct-5-ene-1,4-dione]
100 to 1000 nM | C=CC(=O)NCC(=O)N1CCCc2cccc(-c3cc4nc(-c5cccc(O)c5)nc(N5CCOCC5)c4s3)c21 [II-a-124, N-(2-(8-(2-(3-hydroxyphenyl)-4-morpholinothieno[3,2-d]pyrimidin-6-yl)-3,4-dihydroquinolin-1(2H)-yl)-2-oxoethyl)acrylamide]
100 to 1000 nM | CC(C)=CC(=O)CCCC(=O)N1CCN(c2cc(-c3cnc(N)nc3)nc(N3CCOCC3)c2)CC1 [XII-30, 1-(4-(2-(2-aminopyrimidin-5-yl)-6-morpholinopyridin-4-yl)piperazin-1-yl)-7-methyloct-6-ene-1,5-dione]
100 to 1000 nM | C=CC(=O)N1CCC2(CC1)CCN(C(=O)c1cc3nc(-c4cccc(O)c4)nc(N4CCOCC4)c3s1)CC2 [II-a-119, 1-(9-(2-(3-hydroxyphenyl)-4-morpholinothieno[3,2-d]pyrimidine-6-carbonyl)-3,9-diazaspiro[5.5]undecan-3-yl)prop-2-en-1-one]
100 to 1000 nM | C/C=C/C(=O)CCC(=O)N1CCN(Cc2cc3nc(-c4ccnc5[nH]ccc45)nc(N4CCOCC4)c3s2)CC1 [II-a-114, (E)-1-(4-((4-morpholino-2-(1H-pyrrolo[2,3-b]pyridin-4-yl)thieno[3,2-d]pyrimidin-6-yl)methyl)piperazin-1-yl)hept-5-ene-1,4-dione]
< 10 nM | C/C=C/C(=O)CCC(=O)NCc1cccc(-c2cc3nc(-c4cccc(O)c4)nc(N4CCOCC4)c3s2)c1 [II-a-79, (E)-N-(3-(2-(3-hydroxyphenyl)-4-morpholinothieno[3,2-d]pyrimidin-6-yl)benzyl)-4-oxohept-5-enamide]
10 to 100 nM | C=CC(=O)N1CCN(Cc2cc3nc(-c4cccc5[nH]ncc45)nc(N4CCOCC4)c3s2)CC1 [II-a-2, 1-(4-((2-(1H-indazol-4-yl)-4-morpholinothieno[3,2-d]pyrimidin-6-yl)methyl)piperazin-1-yl)prop-2-en-1-one]
100 to 1000 nM | C=CC(=O)N1CCC(O)(C#Cc2cc3nc(-c4cccc5[nH]ncc45)nc(N4CCOCC4)c3s2)CC1 [II-a-101, 1-(4-((2-(1H-indazol-4-yl)-4-morpholinothieno[3,2-d]pyrimidin-6-yl)ethynyl)-4-hydroxypiperidin-1-yl)prop-2-en-1-one]
100 to 1000 nM | CC(C)=CC(=O)CCCC(=O)N1CCN(Cc2cc(-c3cnc(N)nc3)nc(N3CCOCC3)c2)CC1 [XII-23, 1-(4-((2-(2-aminopyrimidin-5-yl)-6-morpholinopyridin-4-yl)methyl)piperazin-1-yl)-7-methyloct-6-ene-1,5-dione]
100 to 1000 nM | O=C(/C=C/c1ccccc1)CCC(=O)N1CC=C(c2cc3nc(-c4cccc5[nH]ncc45)nc(N4CCOCC4)c3s2)CC1 [II-a-135, (E)-1-(4-(2-(1H-indazol-4-yl)-4-morpholinothieno[3,2-d]pyrimidin-6-yl)-5,6-dihydropyridin-1(2H)-yl)-6-phenylhex-5-ene-1,4-dione]

Continued, compound first:

SMILES | IC50
C=CC(=O)Nc1ccc(CCNC(=O)c2cc(-c3cnc(N)cc3C(F)(F)F)nc(N3CCOCC3)c2)cc1 [XII-11, N-(4-acrylamidophenethyl)-6′-amino-6-morpholino-4′-(trifluoromethyl)-2,3′-bipyridine-4-carboxamide] | > 1000 nM
COc1c(OCCNC(=O)CCCC(=O)/C=C/c2ccccc2)ccc2c1N=C(NC(=O)c1cccnc1)N1CCN=C21 [IX-4, (E)-N-(7-methoxy-8-(2-(5-oxo-7-phenylhept-6-enamido)ethoxy)-2,3-dihydroimidazo[1,2-c]quinazolin-5-yl)nicotinamide] | 100 to 1000 nM
CC(C)=CC(=O)C(=O)N1CCC(C#Cc2cc(-c3cnc(N)nc3)nc(N3CCOCC3)c2)CC1 [XII-32, 1-(4-((2-(2-aminopyrimidin-5-yl)-6-morpholinopyridin-4-yl)ethynyl)piperidin-1-yl)-4-methylpent-3-ene-1,2-dione] | 100 to 1000 nM
CC(C)=CC(=O)CCCCC#Cc1cc(-c2cnc(N)nc2)nc(N2CCOCC2)c1 [XII-6, 10-(2-(2-aminopyrimidin-5-yl)-6-morpholinopyridin-4-yl)-2-methyldec-2-en-9-yn-4-one] | 100 to 1000 nM
CC(C)=CC(=O)CCc1ccc(C#Cc2cc(-c3cnc(N)nc3)nc(N3CCOCC3)c2)cc1 [XII-21, 1-(4-((2-(2-aminopyrimidin-5-yl)-6-morpholinopyridin-4-yl)ethynyl)phenyl)-5-methylhex-4-en-3-one] | > 1000 nM
CC(C)=CC(=O)C1(C(=O)N2CC=C(C#Cc3cc(-c4cnc(N)nc4)nc(N4CCOCC4)c3)CC2)CC1 [XII-37, 1-(1-(4-((2-(2-aminopyrimidin-5-yl)-6-morpholinopyridin-4-yl)ethynyl)-1,2,3,6-tetrahydropyridine-1-carbonyl)cyclopropyl)-3-methylbut-2-en-1-one] | 10 to 100 nM
C=CC(=O)Nc1ccc(OCc2cc3nc(-c4cnc(N)nc4)cc(N4CCOCC4)c3s2)cc1 [II-g-8, N-(4-((5-(2-aminopyrimidin-5-yl)-7-morpholinothieno[3,2-b]pyridin-2-yl)methoxy)phenyl)acrylamide] | 100 to 1000 nM
CC(C)=CC(=O)C(=O)N1CCN(C2CCN(c3cc(-c4cnc(N)nc4)nc(N4CCOCC4)c3)CC2)CC1 [XII-35, 1-(4-(1-(2-(2-aminopyrimidin-5-yl)-6-morpholinopyridin-4-yl)piperidin-4-yl)piperazin-1-yl)-4-methylpent-3-ene-1,2-dione] | 100 to 1000 nM
CC(C)CC(=O)C(=O)N1CCN(c2ccc(-c3cc(-c4cnc(N)nc4)nc(N4CCOCC4)c3)cn2)CC1 [XII-29, 1-(4-(2′-(2-aminopyrimidin-5-yl)-6′-morpholino-3,4′-bipyridin-6-yl)piperazin-1-yl)-4-methylpentane-1,2-dione] | 100 to 1000 nM
C/C=C/C(=O)CCCC(=O)N1CCc2ccc(-c3ccnc4ccc(/C=C5\SC(=O)NC5=O)cc34)cc2C1 [V-17, (Z)-5-((4-(2-((E)-5-oxooct-6-enoyl)-1,2,3,4-tetrahydroisoquinolin-7-yl)quinolin-6-yl)methylene)thiazolidine-2,4-dione] | 10 to 100 nM
C/C=C/C(=O)CCCC(=O)N1CCN(c2ccc(-c3ccnc4ccc(/C=C5\SC(=O)NC5=O)cc34)cn2)CC1 [V-14, (Z)-5-((4-(6-(4-((E)-5-oxooct-6-enoyl)piperazin-1-yl)pyridin-3-yl)quinolin-6-yl)methylene)thiazolidine-2,4-dione] | < 10 nM
C=CC(=O)N1CCc2ccc(-c3ccnc4ccc(/C=C5\SC(=O)NC5=O)cc34)cc2C1 [V-19, (Z)-5-((4-(2-acryloyl-1,2,3,4-tetrahydroisoquinolin-7-yl)quinolin-6-yl)methylene)thiazolidine-2,4-dione] | 10 to 100 nM
C=CC(=O)Nc1ccc(C(=O)N2CCN(c3cc(-c4cnc(N)nc4)nc(N4CCOCC4)c3)CC2)cc1 [XII-53, N-(4-(4-(2-(2-aminopyrimidin-5-yl)-6-morpholinopyridin-4-yl)piperazine-1-carbonyl)phenyl)acrylamide] | 100 to 1000 nM
CC(C)=CC(=O)CCCC(=O)N1CC=C(c2cc(-c3cnc(N)nc3)nc(N3CCOCC3)c2)CC1 [XII-3, 1-(4-(2-(2-aminopyrimidin-5-yl)-6-morpholinopyridin-4-yl)-5,6-dihydropyridin-1(2H)-yl)-7-methyloct-6-ene-1,5-dione] | 10 to 100 nM
